How the values were obtained:
Assay type in all cases: in vivo
[1] = test system: Cydia pomonella eggs; assay: Activity against Cydia pomonella (ovicidal), egg immersion test; conditions: 144 h, 400 ppm of active ingredient in acetone/water, eggs on filter paper immersed, after 6 days, vs untreated control, isomer ratios A, B and C used, read-out: activity (% reduction in hatching rate)
From the text: (§1) The active ingredient is used, in each case, in three different isomer ratios A, B and C: A = 37.8 % of 2R,4S-isomer IIIa, 37.8% of 2S,4R-isomer IIIb, 12.2% of 2R,4R-isomer IIIc and 12.2% of 2S,4S-isomer IIId; B = 40.2% of 2R,4S-isomer IIIa, 40.2% of 2S,4R-isomer IIIb, 9.8% of 2R,4R-isomer IIIc and 9.8% of 2S,4S-isomer IIId; and C = 36.7% of 2R,4S-isomer IIIa, 36.7% of 2S,4R-isomer IIIb, 13.3% of 2R,4R-isomer IIIc and 13.3% of 2S,4S-isomer IIId. Example B4: Activity against Cydia pomonella (ovicidal) Cydia pomonella eggs which have been deposited on filter paper are briefly immersed into a test solution of 400 ppm of active ingredient in acetone/water. After the test solution has dried on, the eggs are incubated in Petri dishes. After 6 days, the percentage hatching rate of the eggs is evaluated by comparison with untreated control batches (% reduction in hatching rate). In this test, the compound of the formula III has an activity of over 80%.

[2] = test system: Aonidiella aurantii crawlers; assay: Activity against Aonidiella aurantii on potato tubers (immersion); conditions: 400 ppm of active ingredient; potato tubers immersed in aqueous emulsion or suspension spray mixture; after 10 to 12 weeks; isomer ratios A, B and C used
From the text: (§2) The active ingredient is used, in each case, in three different isomer ratios A, B and C: A = 37.8 % of 2R,4S-isomer IIIa, 37.8% of 2S,4R-isomer IIIb, 12.2% of 2R,4R-isomer IIIc and 12.2% of 2S,4S-isomer IIId; B = 40.2% of 2R,4S-isomer IIIa, 40.2% of 2S,4R-isomer IIIb, 9.8% of 2R,4R-isomer IIIc and 9.8% of 2S,4S-isomer IIId; and C = 36.7% of 2R,4S-isomer IIIa, 36.7% of 2S,4R-isomer IIIb, 13.3% of 2R,4R-isomer IIIc and 13.3% of 2S,4S-isomer IIId. Example B2: Activity against Aonidiella aurantii Potato tubers are populated with Aonidiella aurantii crawlers. After about 2 weeks, the potatoes are immersed into an aqueous emulsion spray mixture or suspension spray mixture which comprises 400 ppm of active ingredient. After the tubers have dried, they are incubated in a plastic container. To evaluate the experiment after 10 to 12 weeks, the survival rate of the crawlers of the first subsequent generation of the treated population is compared with that of untreated control batches. In this test, the compound of the formula III has an activity of over 80%.

[3] = test system: Adoxophyes reticulana eggs; assay: Activity against Adoxophyes reticulana (ovicidal), egg immersion test; conditions: 144 h; 400 ppm of active ingredient in acetone/water; eggs on filter paper immersed; after 6 days; vs untreated control; isomer ratios A, B and C used; read-out: activity (% reduction in hatching rate)
From the text: as §1, with “B1:” for “B4:”, “Adoxophyes reticulana” for “Cydia pomonella”

[4] = test system: Nilaparvata lugens; assay: Activity against Nilaparvata lugens on sprayed rice plants; conditions: 504 h, 400 ppm of active ingredient, larvae in the 2nd and 3rd stages, after 21 days, isomer ratios A, B and C used, read-out: percentage reduction in population (% activity)
From the text: The active ingredient is used, in each case, in three different isomer ratios A, B and C: A = 37.8 % of 2R,4S-isomer IIIa, 37.8% of 2S,4R-isomer IIIb, 12.2% of 2R,4R-isomer IIIc and 12.2% of 2S,4S-isomer IIId; B = 40.2% of 2R,4S-isomer IIIa, 40.2% of 2S,4R-isomer IIIb, 9.8% of 2R,4R-isomer IIIc and 9.8% of 2S,4S-isomer IIId; and C = 36.7% of 2R,4S-isomer IIIa, 36.7% of 2S,4R-isomer IIIb, 13.3% of 2R,4R-isomer IIIc and 13.3% of 2S,4S-isomer IIId. Example B5: Activity against Nilaparvata lugens Rice plants are sprayed with an aqueous emulsion spray mixture comprising 400 ppm of active ingredient. After the spray coating has dried on, the plants are populated with plant hopper larvae in the 2nd and 3rd stages. The test is evaluated after 21 days. The percentage reduction in population (% activity) is determined by comparing the number of surviving plant hoppers on the treated and untreated plants. In this test, the compound of the formula III has an activity of over 80%.

[5] = test system: Aonidiella aurantii crawlers; assay: Activity against Aonidiella aurantii on Citrus trifoliata cuttings (spray); conditions: 50 ppm of active ingredient; Citrus trifoliata cuttings sprayed to drip point; after 10 to 12 weeks; isomer ratios A, B and C used
From the text: as §2, with “B3:” for “B2:”, “Citrus trifoliata cuttings” for “Potato tubers”, “cuttings” for “potatoes”, “sprayed to drip point with” for “immersed into”, “comprising 50” for “or suspension spray mixture which comprises 400”, “ingredient.” for “ingredient. After the tubers have dried, they are incubated in a plastic container.”

[6] = test system: Nilaparvata lugens; assay: Activity against Nilaparvata lugens (systemic), rice plants in pots; conditions: 144 h, 10 ppm of active ingredient in aqueous emulsion solution, larvae in the 2nd and 3rd stages, after 6 days, isomer ratios A, B and C used, read-out: percentage reduction in population (% activity)
From the text: The active ingredient is used, in each case, in three different isomer ratios A, B and C: A = 37.8 % of 2R,4S-isomer IIIa, 37.8% of 2S,4R-isomer IIIb, 12.2% of 2R,4R-isomer IIIc and 12.2% of 2S,4S-isomer IIId; B = 40.2% of 2R,4S-isomer IIIa, 40.2% of 2S,4R-isomer IIIb, 9.8% of 2R,4R-isomer IIIc and 9.8% of 2S,4S-isomer IIId; and C = 36.7% of 2R,4S-isomer IIIa, 36.7% of 2S,4R-isomer IIIb, 13.3% of 2R,4R-isomer IIIc and 13.3% of 2S,4S-isomer IIId. Example B6: Activity against Nilaparvata lugens (systemic) Pots containing rice plants are placed into an aqueous emulsion solution comprising 10 ppm of active ingredient. The plants are subsequently populated with larvae in the 2nd and 3rd stages. The test is evaluated after 6 days. The percentage reduction in population (% activity) is determined by comparing the number of plant hoppers on the treated and untreated plants. In this test, the compound of the formula III has an activity of over 80%.

CCC1OCC(COc2ccc(Oc3ccccc3)cc2)O1 (racemic) [compound of the formula III, 2-ethyl-4-(4-phenoxyphenoxymethyl)-1,3-dioxolane]
activity at 400 ppm [1]: > 80%
activity (survival rate of the crawlers of the first subsequent generation compared with untreated control) [2]: over 80%
activity at 400 ppm [3]: > 80%
activity at 400 ppm [4]: > 80%
activity (survival rate of the crawlers of the first subsequent generation compared with untreated control) [5]: over 80%
activity at 10 ppm [6]: > 80%

From patent EP0643053A1, “Process for the manufacture of phenoxyphenoxyalkyl derivatives” (CIBA-GEIGY AG, priority 1993, dated 1995)
